Measurements as given in article PMC8795197, “Safety and activity of WX-0593 (Iruplinalkib) in patients with ALK- or ROS1-rearranged advanced non-small cell lung cancer: a phase 1 dose-escalation and dose-expansion trial” (Signal Transduction and Targeted Therapy, 2022).

Assays:
[1] = Excretion and mass balance after [14C]WX-0593; conditions: 0-168 hours
[2] = Repeated-dose toxicity study, 28 days oral gavage; type: in vivo, rats; conditions: for AUC(0-t): po, read-out: AUC0-24h (Day 28)
Method: The severely toxic dose in 10% of the animals (STD10) in rodents was > 30 mg/kg. At a dose of 10 mg/kg/day, AUC0-24h (Day 28) was 16800 h·ng/mL in males and 17300 h·ng/mL in females, which is 4.5 times and 4.7 times of the exposure at the effective dose in mice (2.5 mg/kg, AUC0-24h: 3700 h·ng/mL). At a dose of 30 mg/kg/day, AUC0-24h (Day 28) was 27100 h·ng/mL in males and 42400 h·ng/mL in females, which is 7.3 times and 11.5 times of the exposure at the effective dose in nude mice (2.5 mg/kg, AUC0-24h: 3700 h·ng/mL).

[3] = system: 27 non-target kinases (MAP4K4 ... INSR, EGFR wild type); experiment: Inhibitory study of 27 non-target kinases; type: biochemical; conditions: except for EGFR wild type
[4] = system: Caco-2 cell monolayer; experiment: Caco-2 cell monolayer permeability assay; type: in vitro ADME
Excerpt: The objective of this study was to determine the bidirectional permeability and efflux ratio (ER) of the test article WX-0593 using the Caco-2 cell monolayer model.

[5] = Absorption study (IV and oral PK); type: in vivo, cynomolgus monkeys; conditions: for bioavailability: read-out: absolute bioavailability
Method: Rats and cynomolgus monkeys were selected for the absorption studies based on the "Guidance on the non-clinical pharmacokinetics of medicinal products" (CFDA, 2014) and the in vitro study of species differences in liver microsomes and hepatocyte metabolism.
In general, within the range of 0.5 mg/kg–8 mg/kg, the systemic exposure in male cynomolgus monkeys increased proportionately with the dose, while increased slightly faster than the dose in female cynomolgus monkeys.

[6] = system: remaining 17 GPCR targets; experiment: GPCR antagonist screening assay; type: cell-based; conditions: highest dose detected
[7] = Single-dose toxicity study (acute toxicity)
[8] = Absorption study (IV and oral gavage PK); type: in vivo, Sprague Dawley (SD) rats; conditions: for bioavailability: read-out: absolute bioavailability
[9] = system: Ba/F3 (EML4-ALK-C1156Y); experiment: Cell proliferation inhibition assay; type: cell-based
[10] = Metabolite identification in plasma; type: in vivo, SD rat; conditions: oral WX-0593
Excerpt: Under current experimental conditions, a total of 2 metabolites in addition to the parent drug were detected in rat plasma: a demethylation metabolite, M2 (MW = 554.23, P - CH2) and a mono-oxidation and dehydrogenation product, M6 (MW = 582.23, P + O - 2H). Based on the % peak area from mass spectrometry, the drug exists primarily as the parent drug in the plasma of both male and female rats (97.24% in females and 96.81% in males). Metabolites M2 (2.76% in females and 2.88% in males) and M6 ([…] and 0.31% in males) were both secondary metabolites. Based on the types of metabolites, it is speculated that WX-0593 is mainly metabolized through demethylation, oxidation, and dehydrogenation after oral administration in rats. There was no significant difference in metabolites between female and male rats.

[11] = system: Ba/F3 (EML4-ALK-L1196M); experiment: Cell proliferation inhibition assay; type: cell-based
[12] = Repeated-dose toxicity study, 28 days oral gavage
Method: Repeated administration for 28 days was carried out. 3, 10, and 30 mg/kg were administered to rats. 1, 3, and 10 mg/kg were administered to cynomolgus monkeys.

[13] = in vivo; conditions: male
[14] = system: NCI-H3122 (EML4-ALK fusion gene positive) human NSCLC; experiment: CDX model: efficacy and exposure in plasma, tumor, brain, lung; type: in vivo
Excerpt: NCI-H3122 (EML4-ALK fusion gene positive) is an ALK wild type human NSCLC. […] Higher drug concentration in the lungs provides the material basis for the treatment of lung cancer.

[15] = system: NCI-H1975 (EGFR mutant L858R/T790M); experiment: Cell proliferation inhibition assay; type: cell-based

**Q.** What does the source list for COc1cc(N2CCC3(CCN(C)CC3)CC2)ccc1Nc1ncc(Cl)c(Nc2ccccc2P(C)(C)=O)n1 [WX-0593]?
**A.** dose excreted in feces [1]: 85.84%; dose excreted in urine [1]: 9.36%; dose in cage rinses and washes [1]: 1.51%; mean radioactivity recovery rate ([1]; single oral [14C]WX-0593 8 mg/kg): 96.71%; exposure as multiple of that at the effective dose in mice ([2]; 10 mg/kg/day, females): 4.7 times; exposure as multiple of that at the effective dose in mice ([2]; 10 mg/kg/day, males): 4.5 times; exposure as multiple of that at the effective dose in nude mice ([2]; 30 mg/kg/day, females): 11.5 times; exposure as multiple of that at the effective dose in nude mice ([2]; 30 mg/kg/day, males): 7.3 times; human equivalent dose ([2]; 1/10 of rat STD10, 60 kg/person): 29 mg/person; severely toxic dose in 10% of the animals (STD10) ([2]; 28 days oral gavage): > 30 mg/kg; AUC(0-t) ([2]; female, rat, in vivo, 10 mg/kg/day, females): 17300 ng·h/mL; AUC(0-t) ([2]; female, rat, in vivo, 30 mg/kg/day, females): 42400 ng·h/mL; AUC(0-t) ([2]; male, rat, in vivo, 10 mg/kg/day, males): 16800 ng·h/mL; AUC(0-t) ([2]; male, rat, in vivo, 30 mg/kg/day, males): 27100 ng·h/mL; NOAEL at 28 days ([2]; rat, in vivo, 28 days oral gavage): 10 mg/kg/day; inhibitory activity against non-target kinases [3]: no significant inhibitory activity; efflux transporter substrate [4]: very likely to be a substrate of efflux transporters; permeability ([4]; 50 µM): high permeability; permeability ([4]; 0.5 and 5 µM): low permeability; Tmax ([5]; both sexes, cynomolgus monkey, plasma, oral gavage 0.5–8 mg/kg): 2 to 3.33 h; half-life ([5]; both sexes, cynomolgus monkey, plasma, oral gavage 0.5–8 mg/kg, read-out: plasma terminal half-life): 197 to 488 min; AUC(0-t) ([5]; both sexes, cynomolgus monkey, plasma, single IV 0.5 mg/kg, read-out: AUC0-24h): 323 ± 91.1 ng·h/mL; Vd ([5]; both sexes, cynomolgus monkey, plasma, single IV 0.5 mg/kg, read-out: apparent volume of distribution (Vdss)): 7.7 ± 1.24 L/kg; MRT inf ([5]; both sexes, cynomolgus monkey, plasma, single IV 0.5 mg/kg, read-out: mean residence time (MRT0-inf)): 5.03 ± 138 h; clearance ([5]; both sexes, cynomolgus monkey, plasma, single IV 0.5 mg/kg, read-out: plasma clearance (CL)): 26.8 ± 6.82 mL/min/kg; half-life ([5]; both sexes, cynomolgus monkey, plasma, single IV 0.5 mg/kg, read-out: plasma elimination half-life T1/2 (converted)): 262 ± 143 min; bioavailability ([5]; both sexes, cynomolgus monkey, plasma, single oral 0.5 mg/kg): 37.5%; bioavailability ([5]; both sexes, cynomolgus monkey, plasma, single oral 8 mg/kg): 74.7%; drug accumulation ([5]; oral 2 mg/kg, 7 consecutive days): no significant drug accumulation; absolute bioavailability ([5]; single oral 2 mg/kg): 46.6%; IC50 [6]: > 111 µM; drug exposure at MTD as multiple of that at the effective dose ([7]; female animals): 13.7 times; drug exposure at MTD as multiple of that at the effective dose ([7]; male animals): 9.5 times; Tmax ([8]; both sexes, Sprague-Dawley, rat, plasma, oral gavage 2–24 mg/kg): 2.08 to 2.75 h; half-life ([8]; both sexes, Sprague-Dawley, rat, plasma, oral gavage 2–24 mg/kg, read-out: plasma terminal half-life): 188 to 222 min; AUC(0-inf) ([8]; both sexes, Sprague-Dawley, rat, plasma, single IV 2 mg/kg): 1560 ± 348 ng·h/mL; Vd ([8]; both sexes, Sprague-Dawley, rat, plasma, single IV 2 mg/kg, read-out: apparent volume of distribution (Vdss)): 5.23 ± 0.942 L/kg; MRT inf ([8]; both sexes, Sprague-Dawley, rat, plasma, single IV 2 mg/kg, read-out: mean residence time (MRT0-inf)): 3.96 ± 0.355 h; clearance ([8]; both sexes, Sprague-Dawley, rat, plasma, single IV 2 mg/kg, read-out: plasma clearance (CL)): 22.2 ± 4.67 mL/min/kg; half-life ([8]; both sexes, Sprague-Dawley, rat, plasma, single IV 2 mg/kg, read-out: plasma elimination half-life T1/2 (converted)): 215 ± 39.1 min; bioavailability ([8]; both sexes, Sprague-Dawley, rat, plasma, single oral gavage 2 mg/kg): 36.9%; bioavailability ([8]; both sexes, Sprague-Dawley, rat, plasma, single oral gavage 24 mg/kg): 69.6%; drug accumulation ([8]; oral 8 mg/kg, 7 consecutive days): no significant drug accumulation; CL as % of hepatic blood flow in rats ([8]; single IV 2 mg/kg): 40.3%; absolute bioavailability ([8]; single oral gavage 8 mg/kg): 64.7%; growth inhibition [9]: significantly inhibits the growth; % peak area from mass spectrometry in plasma ([10]; female rats): 97.24%; % peak area from mass spectrometry in plasma ([10]; male rats): 96.81%; growth inhibition [11]: significantly inhibits the growth; human equivalent dose (HED) ([12]; 1/5 of NOAEL, 60 kg/person): 12 mg/person; human equivalent dose ([12]; 1/6 of HNSTD, 60 kg/person): 32 mg/person; highest non-severely toxic dose (HNSTD) ([12]; 28 days oral gavage): greater than 10 mg/kg/day; HNSTD as multiple of the effective dose in nude mice ([12]; cynomolgus monkey, in vivo): 16 times; NOAEL as multiple of the effective dose in nude mice ([12]; cynomolgus monkey, in vivo): 4.8 times; MTD [13]: 200 mg/kg; drug exposure in tumor tissue relative to brigatinib ([14]; 5 mg/kg each): 2 times; efficacy compared with brigatinib ([14]; 5 mg/kg each): comparable; plasma drug exposure compared with brigatinib ([14]; 5 mg/kg each): comparable; drug exposure in the lungs relative to brigatinib ([14]; 5 mg/kg each, 1 h after dosing): approximately 2 times; drug exposure in the brain relative to brigatinib ([14]; 5 mg/kg each, 8 h after dosing): approximately 2 times; drug exposure in the lungs relative to brigatinib ([14]; 5 mg/kg each, 8 h after dosing): approximately 3 times; treatment efficacy versus dose ([14]; 2.5, 5, 10 mg/kg): increased with dose; rank of drug concentrations in tissues ([14]; 1 h and 8 h after dosing, all dose arms (2.5, 5, 10 mg/kg)): lungs > tumor > brain; growth inhibition [15]: somewhat inhibits the growth
